Laboratory results as given in PubChem BioAssay (NCI).
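Values below derive from 48-hour exposures of cells grown in 96-well plates, with endpoints linearly interpolated between the two concentrations bracketing the appropriate inhibition level. At the GI50, growth is halved. TGI denotes the concentration required for complete inhibition of growth.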

Columns and labels:
Experiment in all cases: NCI tumour cell line growth inhibition, 48 h
HL-60(TB) leukemia = test system: HL-60(TB) leukemia
DLD-1 colon = test system: DLD-1 colon
CCRF-CEM leukemia = test system: CCRF-CEM leukemia
786-0 renal = test system: 786-0 renal
U251 CNS = test system: U251 CNS
SNB-19 CNS = test system: SNB-19 CNS
LOX IMVI melanoma = test system: LOX IMVI melanoma
ACHN renal = test system: ACHN renal
SNB-75 CNS = test system: SNB-75 CNS
MOLT-4 leukemia = test system: MOLT-4 leukemia
HOP-92 NSCLC = test system: HOP-92 NSCLC
NCI-H460 lung = test system: NCI-H460 lung
TK-10 renal = test system: TK-10 renal
NCI-H23 lung = test system: NCI-H23 lung
CAKI-1 renal = test system: CAKI-1 renal
COLO 205 colon = test system: COLO 205 colon
SK-MEL-5 melanoma = test system: SK-MEL-5 melanoma
SF-539 CNS = test system: SF-539 CNS
SN12C renal = test system: SN12C renal
OVCAR-8 ovarian = test system: OVCAR-8 ovarian
HCT-15 colon = test system: HCT-15 colon
NCI-H522 lung = test system: NCI-H522 lung
UO-31 renal = test system: UO-31 renal
LXFL 529 NSCLC = test system: LXFL 529 NSCLC
MALME-3M melanoma = test system: MALME-3M melanoma
K-562 leukemia = test system: K-562 leukemia
SF-268 CNS = test system: SF-268 CNS
A498 renal = test system: A498 renal
SK-OV-3 ovarian = test system: SK-OV-3 ovarian
SK-MEL-28 melanoma = test system: SK-MEL-28 melanoma
RXF 393 renal = test system: RXF 393 renal
RPMI-8226 leukemia = test system: RPMI-8226 leukemia
SK-MEL-2 melanoma = test system: SK-MEL-2 melanoma
M14 melanoma = test system: M14 melanoma
HCC-2998 colon = test system: HCC-2998 colon
KM12 colon = test system: KM12 colon
HT29 colon = test system: HT29 colon
UACC-62 melanoma = test system: UACC-62 melanoma
HOP-62 NSCLC = test system: HOP-62 NSCLC
SF-295 CNS = test system: SF-295 CNS
HOP-18 NSCLC = test system: HOP-18 NSCLC
OVCAR-5 ovarian = test system: OVCAR-5 ovarian
XF 498 CNS = test system: XF 498 CNS
EKVX NSCLC = test system: EKVX NSCLC
SW-620 colon = test system: SW-620 colon
UACC-257 melanoma = test system: UACC-257 melanoma
DMS 273 small cell lung = test system: DMS 273 small cell lung
KM20L2 colon = test system: KM20L2 colon
OVCAR-4 ovarian = test system: OVCAR-4 ovarian
A549 NSCLC = test system: A549 NSCLC
IGROV1 ovarian = test system: IGROV1 ovarian
OVCAR-3 ovarian = test system: OVCAR-3 ovarian
M19-MEL melanoma = test system: M19-MEL melanoma

In the case of `NC1CCCCC1N.O=NN1CCCCCC1(P(=O)([O-])[O-])P(=O)([O-])[O-].[Na+].[Pt+2]`, the GI50 (HL-60(TB) leukemia) is reported as > 100 µM, the TGI (HL-60(TB) leukemia) is reported as > 100 µM and the GI50 (DLD-1 colon) is reported as > 100 µM. The TGI (DLD-1 colon) was > 100 µM, the GI50 (CCRF-CEM leukemia) was > 100 µM and the TGI (CCRF-CEM leukemia) was > 100 µM. The GI50 (786-0 renal) was > 100 µM, the TGI (786-0 renal) was > 100 µM and the GI50 (U251 CNS) was > 100 µM. For the same molecule, the TGI (U251 CNS) was > 100 µM, the GI50 (SNB-19 CNS) was > 100 µM and the TGI (SNB-19 CNS) was > 100 µM. The GI50 (LOX IMVI melanoma) was > 100 µM, the TGI (LOX IMVI melanoma) was > 100 µM and the GI50 (ACHN renal) was > 100 µM. For the same molecule, the TGI (ACHN renal) was > 100 µM, the GI50 (SNB-75 CNS) was 96.9 µM and the TGI (SNB-75 CNS) was > 100 µM. For the same molecule, the GI50 (MOLT-4 leukemia) was > 100 µM, the TGI (MOLT-4 leukemia) was > 100 µM and the GI50 (HOP-92 NSCLC) was > 100 µM. The TGI (HOP-92 NSCLC) was > 100 µM, the GI50 (NCI-H460 lung) was > 100 µM and the TGI (NCI-H460 lung) was > 100 µM. The GI50 (TK-10 renal) was > 100 µM, the TGI (TK-10 renal) was > 100 µM and the GI50 (NCI-H23 lung) was > 100 µM. For the same molecule, the TGI (NCI-H23 lung) was > 100 µM, the GI50 (CAKI-1 renal) was > 100 µM and the TGI (CAKI-1 renal) was > 100 µM. For the same molecule, the GI50 (COLO 205 colon) was > 100 µM, the TGI (COLO 205 colon) was > 100 µM and the GI50 (SK-MEL-5 melanoma) was > 100 µM. The TGI (SK-MEL-5 melanoma) was > 100 µM, the GI50 (SF-539 CNS) was > 100 µM and the TGI (SF-539 CNS) was > 100 µM. For the same molecule, the GI50 (SN12C renal) was > 100 µM, the TGI (SN12C renal) was > 100 µM and the GI50 (OVCAR-8 ovarian) was > 100 µM. For the same molecule, the TGI (OVCAR-8 ovarian) was > 100 µM, the GI50 (HCT-15 colon) was > 100 µM and the TGI (HCT-15 colon) was > 100 µM. For the same molecule, the GI50 (NCI-H522 lung) was > 100 µM, the TGI (NCI-H522 lung) was > 100 µM and the GI50 (UO-31 renal) was > 100 µM. For the same molecule, the TGI (UO-31 renal) was > 100 µM, the GI50 (LXFL 529 NSCLC) was > 100 µM and the TGI (LXFL 529 NSCLC) was > 100 µM. For the same molecule, the GI50 (MALME-3M melanoma) was > 100 µM, the TGI (MALME-3M melanoma) was > 100 µM and the GI50 (K-562 leukemia) was > 100 µM. For the same molecule, the TGI (K-562 leukemia) was > 100 µM, the GI50 (SF-268 CNS) was > 100 µM and the TGI (SF-268 CNS) was > 100 µM. The GI50 (A498 renal) was > 100 µM, the TGI (A498 renal) was > 100 µM and the GI50 (SK-OV-3 ovarian) was > 100 µM. The TGI (SK-OV-3 ovarian) was > 100 µM, the GI50 (SK-MEL-28 melanoma) was > 100 µM and the TGI (SK-MEL-28 melanoma) was > 100 µM. The GI50 (RXF 393 renal) was > 100 µM, the TGI (RXF 393 renal) was > 100 µM and the GI50 (RPMI-8226 leukemia) was > 100 µM. For the same molecule, the TGI (RPMI-8226 leukemia) was > 100 µM, the GI50 (SK-MEL-2 melanoma) was > 100 µM and the TGI (SK-MEL-2 melanoma) was > 100 µM. The GI50 (M14 melanoma) was > 100 µM, the TGI (M14 melanoma) was > 100 µM and the GI50 (HCC-2998 colon) was > 100 µM. For the same molecule, the TGI (HCC-2998 colon) was > 100 µM, the GI50 (KM12 colon) was > 100 µM and the TGI (KM12 colon) was > 100 µM. For the same molecule, the GI50 (HT29 colon) was > 100 µM, the TGI (HT29 colon) was > 100 µM and the GI50 (UACC-62 melanoma) was > 100 µM. For the same molecule, the TGI (UACC-62 melanoma) was > 100 µM, the GI50 (HOP-62 NSCLC) was > 100 µM and the TGI (HOP-62 NSCLC) was > 100 µM. The GI50 (SF-295 CNS) was > 100 µM, the TGI (SF-295 CNS) was > 100 µM and the GI50 (HOP-18 NSCLC) was > 100 µM. For the same molecule, the TGI (HOP-18 NSCLC) was > 100 µM, the GI50 (OVCAR-5 ovarian) was > 100 µM and the TGI (OVCAR-5 ovarian) was > 100 µM. The GI50 (XF 498 CNS) was > 100 µM, the TGI (XF 498 CNS) was > 100 µM and the GI50 (EKVX NSCLC) was > 100 µM. For the same molecule, the TGI (EKVX NSCLC) was > 100 µM, the GI50 (SW-620 colon) was > 100 µM and the TGI (SW-620 colon) was > 100 µM. For the same molecule, the GI50 (UACC-257 melanoma) was > 100 µM, the TGI (UACC-257 melanoma) was > 100 µM and the GI50 (DMS 273 small cell lung) was > 100 µM. The TGI (DMS 273 small cell lung) was > 100 µM, the GI50 (KM20L2 colon) was > 100 µM and the TGI (KM20L2 colon) was > 100 µM. For the same molecule, the GI50 (OVCAR-4 ovarian) was > 100 µM, the TGI (OVCAR-4 ovarian) was > 100 µM and the GI50 (A549 NSCLC) was > 100 µM. The TGI (A549 NSCLC) was > 100 µM, the GI50 (IGROV1 ovarian) was > 100 µM and the TGI (IGROV1 ovarian) was > 100 µM. For the same molecule, the GI50 (OVCAR-3 ovarian) was > 100 µM and the TGI (OVCAR-3 ovarian) was > 100 µM.

`CC(NS(=O)(=O)c1ccc(Cl)cc1)C(=O)O` (stereo not given) was tested, and the TGI (HL-60(TB) leukemia) was > 100 µM, the TGI (DLD-1 colon) was > 100 µM and the TGI (CCRF-CEM leukemia) was > 100 µM. The TGI (786-0 renal) was > 100 µM, the TGI (U251 CNS) was > 100 µM and the TGI (SNB-19 CNS) was > 100 µM. For the same molecule, the TGI (LOX IMVI melanoma) was > 100 µM, the TGI (ACHN renal) was > 100 µM and the TGI (SNB-75 CNS) was > 100 µM. The TGI (MOLT-4 leukemia) was > 100 µM, the TGI (HOP-92 NSCLC) was > 100 µM and the TGI (NCI-H460 lung) was > 100 µM. For the same molecule, the TGI (TK-10 renal) was > 100 µM, the TGI (NCI-H23 lung) was > 100 µM and the TGI (CAKI-1 renal) was > 100 µM. For the same molecule, the TGI (M19-MEL melanoma) was > 100 µM, the TGI (COLO 205 colon) was > 100 µM and the TGI (SK-MEL-5 melanoma) was > 100 µM. For the same molecule, the TGI (SF-539 CNS) was > 100 µM, the TGI (SN12C renal) was > 100 µM and the TGI (OVCAR-8 ovarian) was > 100 µM. The TGI (HCT-15 colon) was > 100 µM, the TGI (NCI-H522 lung) was > 100 µM and the TGI (UO-31 renal) was > 100 µM. For the same molecule, the TGI (LXFL 529 NSCLC) was > 100 µM, the TGI (MALME-3M melanoma) was > 100 µM and the TGI (K-562 leukemia) was > 100 µM. The TGI (SF-268 CNS) was > 100 µM, the TGI (A498 renal) was > 100 µM and the TGI (SK-OV-3 ovarian) was > 100 µM. For the same molecule, the TGI (SK-MEL-28 melanoma) was > 100 µM, the TGI (RXF 393 renal) was > 100 µM and the TGI (RPMI-8226 leukemia) was > 100 µM. The TGI (SK-MEL-2 melanoma) was > 100 µM, the TGI (M14 melanoma) was > 100 µM and the TGI (KM12 colon) was > 100 µM. For the same molecule, the TGI (HT29 colon) was > 100 µM, the TGI (UACC-62 melanoma) was > 100 µM and the TGI (SF-295 CNS) was > 100 µM. The TGI (HOP-18 NSCLC) was > 100 µM, the TGI (OVCAR-5 ovarian) was > 100 µM and the TGI (XF 498 CNS) was > 100 µM. The TGI (EKVX NSCLC) was > 100 µM, the TGI (SW-620 colon) was > 100 µM and the TGI (UACC-257 melanoma) was > 100 µM. The TGI (DMS 273 small cell lung) was > 100 µM, the TGI (KM20L2 colon) was > 100 µM and the TGI (OVCAR-4 ovarian) was > 100 µM. The TGI (A549 NSCLC) was > 100 µM, the TGI (IGROV1 ovarian) was > 100 µM and the TGI (OVCAR-3 ovarian) was > 100 µM.
